According to patent publication US5695970A, “Glucan lyase producing 1,5-anhydrofructose” (priority 1992, dated 1997):
“Also recorded” adds a separate entry of the source.

Experiments:
[1] = test system: α-1,4-glucan lyase; test: Inhibition studies of α-1,4-glucan lyase activity; assay type: biochemical, Gracilariopsis lemaneiformis; details: for inhibition of the degradation of maltose: 3 mg/ml polysaccharide; for inhibition of enzymic activity: 0.1M
Description: (§1) The reaction mixture for the assay of α-1,4-glucan lyase was composed of 240 μl 62.5 mM Mops-NaOH containing 6 mg soluble starch (pH 6.2), the enzyme preparation and distilled water to a final volume of 300 μl. The reaction was carried out at 30° C. for 10-30 min. Liberated 1,5-anhydrofructose was determined by monitoring the absorbance at 546 nm after the addition of 3,5-dinitrosalicylic acid reagent. Soluble starch in the reaction mixture may be replaced by other substrates and the final substrate concentration may be varied as indicated in the text. The reaction time and enzyme concentration used in enzyme activity assay have been chosen to ensure the linearity of the reaction rate. One unit of α-1,4-glucan lyase activity is defined as the amount of enzyme which liberates 1μmol of 1,5-anhydrofructose min^-1 under the conditions described above.

[2] = test system: α-1,4-glucan lyase; test: Elution of α-1,4-glucan lyase from the starch column by glucans; assay type: binding, Gracilariopsis lemaneiformis; details: glucan 8 mg ml^-1; column 1 ml, 5 ml eluate; recovery with amylopectin = 100%
Description: In these experiments, as much as 5 times of the column volume was collected. At high pH, for example, 50 mM bicine-NaOH (pH 8.2), the binding of the enzyme onto the starch column was loose and it was eluted by subsequent washing with the same buffer. Neither ConA-Sepharose nor cycloheptaamylose-Sepharose 6B was effective for the purification of the enzyme because of low recovery.
The efficiency of various glucans (8 mg ml^-1) on the elution of
α-1,4-glucan lyase from the starch column. The column volume
was 1 ml and 5 ml eluate was pooled. The recovery of
α-1,4-glucan lyase eluted by amylopectin was used as 100%.
Gracilariopsis lemaneiformis (originally collected from China), 30 g, was sampled directly from the culture cylinder and was rinsed briefly with deionized water and blotted dry with paper tissue. The following operations were carried out at 0°-4° C. The thalli were cut to pieces with scissors and pulverized under liquid nitrogen. To 1 g alga powder was added 3 volumes of buffer A (50 mM citrate-NaOH, pH 6.6), filtered through two-layer cloth and centrifuged at 36,600×g for 10 min. The supernatant (cell-free extract) was loaded onto a starch column (4.1×1.5 cm) pre-equilibrated with buffer A. After loading, the column was extensively washed with 4 volumes of buffer A, volumes of buffer A containing 1M NaCl, 1 volume of buffer A, 1 volume of buffer B (50 mM imidazole-HCl, pH 6.6) in a flow speed of 24 ml h^-1. α-1,4-Glucan lyase was eluted with buffer B containing 10 mg ml^-1 amylopectin in a fraction size of 3.5 ml. To separate α-1,4-glucan lyase from the amylopectin, the active fractions of the eluate were pooled and applied onto a Q-Sepharose column (2.6×5 cm). The column was pre-equilibrated and later washed with buffer B. α-1,4-Glucan lyase was eluted with buffer B containing 0.7M NaCl. Active fractions were pooled and concentrated on a Centriprep CP30 (Amicon, USA) with a molecule weight cutoff of 30,000 and applied to a Sephacryl S-200 column (2.6×80 cm) pre-equilibrated and eluted with buffer A containing 0.2M NaCl. The flow speed was 60 ml h^-1 with a fraction size of 3.5 ml per tube. Active fractions were collected and concentrated again by using centriprep CP30.

[3] = test system: α-1,4-glucan lyase; test: Substrate specificity of α-1,4-glucan lyase (release of 1,5-anhydrofructose, DNS method, 15 min); assay type: biochemical, Gracilariopsis lemaneiformis; details: for Activity (% of Maltoheptaose): incubation 15 min; for substrate inhibition: higher substrate concentrations, 10 mg ml^-1 compared with 2 and 4 mg ml^-1
Description: When amylopectin was used as a substrate, the activity reached maximum 8 mg ml^-1 and then decreased slightly at 20 mg ml^-1. The same results were obtained with soluble starch and maltoheptaose. When maltotriose and maltose were used as substrates, the activity reached maximum at 2 mg ml^-1 and 6 mg ml^-1, respectively. Substrate inhibition became evident at higher concentrations, especially in the case of maltotriose. […] Generally, the inhibition degree decreased with the increase in DP number (Degree of Polymerization). When the activity measured at 10 mg ml^-1 was compared at 2 mg ml^-1 and 4 mg ml^-1, substrate inhibition could be clearly seen among the maltosaccharides of DP 3-5. In maltohexaose, the substrate inhibition was very low and was none in maltoheptaose. Among the maltosaccharides, maltotetraose and maltopentaose were the poorest substrates.
With PNPG1 (p-nitrophenyl-α-D-glucoside), the artificial substrate of α-glucosidase, reaction rate was the lowest.
Substrate Specificity of α-1,4-Glucan lyase.
The concentration of various substrates in the reaction mixture
was 10 mg ml^-1 except PNPG1, PNPG2, PNPG7, which was 2 mM.
The incubation time was 15 min. The degrading rate of maltoheptaose
was 84 μmol min^-1. mg^-1 protein.
as §1

[4] = test system: α-1,4-glucan lyase; test: Reaction mode: complete degradation of substrates by the lyase and final products; assay type: biochemical, Gracilariopsis lemaneiformis; details: for time needed for a complete degradation: enzyme 6 μg protein per ml, 30° C.
Description: In an enzyme concentration of 6 μg protein per ml, at 30° C., the time needed for a complete degradation of 1% maltose solution was 1 h, for 2% maltose solution, 3 h, for 5% maltose solution, 10-24 h, for 2% maltoheptaose, 10-24 h. This is in sharp contrast to many polysaccharides' depolymerization enzymes, whose reaction stops with the accumulation of products or with the decrease in substrate size.
When maltoheptaose was used as a substrate, the final products are 1,5-anhydrofructose and glucose and their ratio is 6:1. The intermediate products are a mixture of maltosaccharides with a DP number between 2-6 during the process of the reaction. With the increase of reaction time, the DP number of the maltosaccharides decreased and finally all the maltosaccharides disappeared. When maltose was used as a substrate, the ratio of 1,5-anhydrofructose to glucose was 1:1. With the increase of DP number, the yield of glucose decreased, while the yield of 1,5-anhydrofructose increased. When a linear chain of a α-1,4-glucan is long enough, the yield of 1,5-anhydrofructose can be nearly 100%.

[5] = test system: α-1,4-glucan lyase; test: Substrate specificity of α-1,4-glucan lyase, long term incubation (24 h), continuation of Table IV; assay type: biochemical, Gracilariopsis lemaneiformis
Description: The incubation time was 24 h.
as §1

glycogen
inhibition of the degradation of maltose ([1]; maltose as substrate): ~47%
Elution Efficiency [2]: 87.1%
Activity (% of Maltoheptaose) ([3]; substrate 10 mg ml^-1): 77.6%

OC[C@H]1OC(O)[C@@H](O)[C@@H](O)[C@@H]1O (stereo partly drawn) [mannose]
conversion of monosaccharide to 1,5-anhydrofructose by the lyase [4]: can not convert
inhibition of enzymic activity ([1]; amylopectin as substrate): no inhibition
inhibition of enzymic activity ([1]; maltose as substrate): no inhibition

OC[C@H]1O[C@H](O[C@H]2[C@H](O)[C@@H](O)[C@H](O)O[C@@H]2CO)[C@H](O)[C@@H](O)[C@@H]1O [Maltose, maltose]
time needed for a complete degradation ([4]; 1% solution): 1 h
time needed for a complete degradation ([4]; 2% maltose solution): 3 h
time needed for a complete degradation ([4]; 5% solution): 10 to 24 h
Elution Efficiency [2]: 56.4%
substrate concentration at which the activity reached maximum [3]: 6 mg/mL
substrate inhibition [3]: showed substrate inhibition
Activity (% of Maltoheptaose) ([3]; substrate 10 mg ml^-1): 66.7%

OC[C@H]1O[C@H](O[C@H]2[C@H](O)[C@@H](O)[C@@H](O[C@H]3[C@H](O)[C@@H](O)[C@@H](O[C@H]4[C@H](O)[C@@H](O)[C@@H](O[C@H]5[C@H](O)[C@@H](O)C(O)O[C@@H]5CO)O[C@@H]4CO)O[C@@H]3CO)O[C@@H]2CO)[C@H](O)[C@@H](O)[C@@H]1O (stereo partly drawn) [Maltopentaose, maltopentaose]
substrate inhibition [3]: showed substrate inhibition
Activity (% of Maltoheptaose) ([3]; substrate 10 mg ml^-1): 36.6%

β-limit dextrin
Activity (% of Maltoheptaose) ([3]; substrate 10 mg ml^-1): 22.7%

O=C(CO)[C@@H](O)[C@H](O)[C@H](O)CO [fructose]
conversion of monosaccharide to 1,5-anhydrofructose by the lyase [4]: can not convert
inhibition of enzymic activity ([1]; amylopectin as substrate): no inhibition
inhibition of enzymic activity ([1]; maltose as substrate): no inhibition

OC[C@H]1O[C@H](O[C@H]2[C@H](O)[C@@H](O)[C@@H](O[C@H]3[C@H](O)[C@@H](O)[C@@H](O[C@H]4[C@H](O)[C@@H](O)C(O)O[C@@H]4CO)O[C@@H]3CO)O[C@@H]2CO)[C@H](O)[C@@H](O)[C@@H]1O (stereo partly drawn) [Maltotetraose, maltotetraose]
Elution Efficiency [2]: 65.7%
substrate inhibition [3]: showed substrate inhibition
Activity (% of Maltoheptaose) ([3]; substrate 10 mg ml^-1): 27.8%

floridean starch
Activity (% of Maltoheptaose) ([3]; substrate 10 mg ml^-1): 61.9%

OC[C@H]1OC(O)[C@H](O)[C@@H](O)[C@H]1O (stereo partly drawn) [galactose]
conversion of monosaccharide to 1,5-anhydrofructose by the lyase [4]: can not convert
inhibition of enzymic activity ([1]; amylopectin as substrate): no inhibition
inhibition of enzymic activity ([1]; maltose as substrate): no inhibition

OC[C@H]1OC(O)[C@H](O)[C@@H](O)[C@@H]1O (stereo partly drawn) [Glucose, glucose]
conversion of monosaccharide to 1,5-anhydrofructose by the lyase [4]: can not convert
inhibition of enzymic activity ([1]; amylopectin as substrate): no inhibition
inhibition of enzymic activity ([1]; maltose as substrate): around 22%
product inhibition: effect on enzyme reaction rate ([1]; products accumulating during the enzyme reaction): negligible effect
Elution Efficiency [2]: 0%

pullulan
activity of the lyase with the substrate (in words) ([5]; long term incubation at 30° C.): no detectable activity; also recorded: little or no activity
Product released ([5]; substrate 4 mg ml^-1, 1.64 μg enzyme, 24 h): 0 nmol
inhibition of the degradation of maltose ([1]; maltose as substrate): did not inhibit
Elution Efficiency [2]: 32.3%

O=[N+]([O-])c1ccc(O[C@H]2O[C@H](CO)[C@@H](O[C@H]3O[C@H](CO)[C@@H](O)[C@H](O)[C@H]3O)[C@H](O)[C@H]2O)cc1 [PNPG2, p-nitrophenyl-α-D-maltoside]
Activity (% of Maltoheptaose) ([3]; substrate 2 mM): 22.5%

OC[C@H]1O[C@H](O[C@H]2[C@H](O)[C@@H](O)[C@@H](O[C@H]3[C@H](O)[C@@H](O)C(O)O[C@@H]3CO)O[C@@H]2CO)[C@H](O)[C@@H](O)[C@@H]1O (stereo partly drawn) [Maltotriose, maltotriose]
substrate concentration at which the activity reached maximum [3]: 2 mg/mL
substrate inhibition [3]: showed substrate inhibition
Activity (% of Maltoheptaose) ([3]; substrate 10 mg ml^-1): 39.1%

amylose
Activity (% of Maltoheptaose) ([3]; substrate 10 mg ml^-1): 100.4%

O=[N+]([O-])c1ccc(O[C@H]2O[C@H](CO)[C@@H](O[C@H]3O[C@H](CO)[C@@H](O[C@H]4O[C@H](CO)[C@@H](O[C@H]5O[C@H](CO)[C@@H](O[C@H]6O[C@H](CO)[C@@H](O[C@H]7O[C@H](CO)[C@@H](O[C@H]8O[C@H](CO)[C@@H](O)[C@H](O)[C@H]8O)[C@H](O)[C@H]7O)[C@H](O)[C@H]6O)[C@H](O)[C@H]5O)[C@H](O)[C@H]4O)[C@H](O)[C@H]3O)[C@H](O)[C@H]2O)cc1 [PNPG7, p-nitrophenyl-α-D-maltoheptaoside]
Activity (% of Maltoheptaose) ([3]; substrate 2 mM): 100.0%

amylopectin
inhibition of the degradation of maltose ([1]; maltose as substrate): around 67%
type of inhibition ([1]; maltose as substrate): mixed competive/non-competive
inhibition of the algal enzyme (in words) ([1]; summary statement, maltose as substrate): inhibited
Elution Efficiency [2]: 100%
substrate concentration at which the activity reached maximum [3]: 8 mg/mL
Activity (% of Maltoheptaose) ([3]; substrate 10 mg ml^-1): 94.1%

O=[N+]([O-])c1ccc(O[C@H]2O[C@H](CO)[C@@H](O)[C@H](O)[C@H]2O)cc1 [PNPG1, p-nitrophenyl-α-D-glucoside]
Activity (% of Maltoheptaose) ([3]; substrate 2 mM): 0.113%

soluble starch
Activity (% of Maltoheptaose) ([3]; substrate 10 mg ml^-1): 100.2%

OC[C@H]1O[C@H](O[C@H]2[C@H](O)[C@@H](O)[C@@H](O[C@H]3[C@H](O)[C@@H](O)[C@@H](O[C@H]4[C@H](O)[C@@H](O)[C@@H](O[C@H]5[C@H](O)[C@@H](O)[C@@H](O[C@H]6[C@H](O)[C@@H](O)C(O)O[C@@H]6CO)O[C@@H]5CO)O[C@@H]4CO)O[C@@H]3CO)O[C@@H]2CO)[C@H](O)[C@@H](O)[C@@H]1O (stereo partly drawn) [Maltohexaose, maltohexaose]
substrate inhibition [3]: very low
Activity (% of Maltoheptaose) ([3]; substrate 10 mg ml^-1): 74.6%
